In PMC10095345, “The Role of Tyr-His-Trp Triad and Water Molecule Near the N1-Atom of 2-Hydroperoxycoelenterazine in Bioluminescence of Hydromedusan Photoproteins: Structural and Mutagenesis Study” (International Journal of Molecular Sciences, 2023):

Columns and labels:
[1] = biological target: T1, obelin (OL_wt) (Obelia longissima, UniProt Q27709); assay: Ca2+-triggered bioluminescence of charged photoprotein, luminometer; type: biochemical; conditions: 2 mM CaCl2, 50 mM Tris-HCl pH 8.5, 23 C; bound as 2-hydroperoxycoelenterazine
T1 construct: full-length apo-obelin from pET19-OL8 in E. coli BL21-Gold (DE3) Codon Plus (RIPL), charged with coelenterazine; 195 residues

[2] = biological target: T2, aequorin (AV_wt) (Aequorea victoria, UniProt P07164); assay: as above; type: biochemical; conditions: 2 mM CaCl2, 50 mM Tris-HCl pH 8.5, 23 C; bound as 2-hydroperoxycoelenterazine
T2 construct: apo-aequorin with N-terminus truncated by six residues, from pET22-A7 in E. coli BL21-Gold (DE3) Codon Plus (RIPL), charged with coelenterazine
T2 sequence (P07164 7-196 limits assumed): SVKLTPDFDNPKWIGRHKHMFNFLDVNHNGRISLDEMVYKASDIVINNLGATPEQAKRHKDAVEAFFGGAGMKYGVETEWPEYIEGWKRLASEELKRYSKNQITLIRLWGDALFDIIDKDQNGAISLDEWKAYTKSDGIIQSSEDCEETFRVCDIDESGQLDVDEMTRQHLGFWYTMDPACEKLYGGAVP

T1 sequence (Q27709 whole entry): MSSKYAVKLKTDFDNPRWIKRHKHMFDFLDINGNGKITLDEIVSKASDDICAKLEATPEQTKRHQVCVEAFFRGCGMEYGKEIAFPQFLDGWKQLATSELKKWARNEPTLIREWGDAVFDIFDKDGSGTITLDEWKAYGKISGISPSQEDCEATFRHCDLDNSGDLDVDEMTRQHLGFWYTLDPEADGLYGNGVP

Oc1ccc(Cc2nc3c(Cc4ccccc4)nc(-c4ccc(O)cc4)cn3c2O)cc1 [coelenterazine]
Ca2+-triggered bioluminescence of charged photoprotein, luminometer [1]: Obelin and aequorin as well as their mutants were purified and activated with coelenterazine
Ca2+-triggered bioluminescence of charged photoprotein, luminometer [2]: Obelin and aequorin as well as their mutants were purified and activated with coelenterazine
